# System: NFAT
# Assay: NFAT activation assay (luciferase reporter, PMA and ionomycin)
# Format: cell-based
# Conditions: Homo sapiens; 10 μM compound; Jurkat cells; 15 nM PMA and 0.5 μM ionomycin; 18 hours; read-out: Activity 10 μM (% inhibition of NFAT luciferase luminescence)
# Method: Jurkat cells (BPS Bioscience catalog No. 60621) were seeded at 40,000 cells per well into white clear-bottom 96-well microplate in 80 μl of growth medium without Geneticin. 10 μl of testing compounds (final 10 μM) were added to each well and preincubated with cells for half an hour. Then 10 μl of PMA and ionomycin mixture were added to each well to make the final concentration of 15 nM PMA and 0.5 μM ionomycin. Cells were incubated at 37° C. and 5% CO2 incubator for 18 hours. After treatment, cells were lysed and the luciferase assay was performed using ONE-Step luciferase assay system by adding 100 μl of One-Step Luciferase reagent (BPS Bioscience catalog No. 60690) per well followed by rocking at room temperature for about 30 minutes. Luminescence was measured using a luminometer (BioTek Synergym™ 2 microplate reader). The percent luminescence in the presence of each compound was calculated according to the following equation: % Luminescence=(L−Lb)/(Lt−Lb), where L=the luminescence intensity in the presence of the compound, Lb=the luminescence intensity in the absence of cells, and Lt=the luminescence intensity in the absence of the compound. The percent inhibition was calculated by: % inhibition=100−(% Luminescence).
row,SMILES,inhibition at 10 µM [%]
1,"O=C(Nc1c(F)cccc1F)c1cn(CC2CC2)c2ccccc12 [Example 1, 1-(cyclopropylmethyl)-N-(2,6-difluorophenyl)-1H-indole-3-carboxamide]",51 to 75
2,"O=C(Nc1c(F)cncc1F)c1cn(CC2CC2)c2ccccc12 [Example 3, 1-(cyclopropylmethyl)-N-(3,5-difluoropyridin-4-yl)-1H-indole-3-carboxamide]",51 to 75
3,"Cc1cnccc1NC(=O)c1cn(CC2CC2)c2ccccc12 [Example 4, 1-(cyclopropylmethyl)-N-(3-methylpyridin-4-yl)-1H-indole-3-carboxamide]",51 to 75
4,"O=C(Nc1ccncc1F)c1cn(CC2CC2)c2ncccc12 [Example 5, 1-(cycloproylmethyl)-N-(3-fluoropyridin-4-yl)-1H-pyrrolo[2,3-b]pyridine-3-carboxamide]",26 to 50
5,"Cc1cnccc1NC(=O)c1nn(CC2CC2)c2ccccc12 [Example 6, 1-(cyclopropylmethyl)-N-(3-methylpyridin-4-yl)-1H-indazole-3-carboxamide]",> 75
6,"O=C(Nc1ccncc1F)c1nn(CC2CCC2)c2ccccc12 [Example 10, 1-(cyclobutylmethyl)-N-(3-fluoropyridin-4-yl)-1H-indazole-3-carboxamide]",> 75
7,"Cc1cnccc1NC(=O)c1nn(CC2CCC2)c2ccccc12 [Example 11, 1-(cyclobutylmethyl)-N-(3-methylpyridin-4-yl)-1H-indazole-3-carboxamide]",> 75
8,"O=C(Nc1ccncc1F)c1cn(CC2COC2)c2ccccc12 [Example 12, N-(3-fluoropyridin-4-yl)-1-(oxetan-3-ylmethyl)-1H-indole-3-carboxamide]",< 25
9,"CN(C(=O)c1cn(CC2CC2)c2ccccc12)c1ccncc1F [Example 14, 1-(cyclopropylmethyl)-N-(3-fluoropyridin-4-yl)-N-methyl-1H-indole-3-carboxamide]",< 25
10,"Fc1cnccc1NCc1cn(CC2CC2)c2ccccc12 [Example 15, N-((1-(cyclopropylmethyl)-1H-indol-3-yl)methyl)-3-fluoropyridin-4-amine]",26 to 50
11,"O=C(Nc1ccncc1F)c1cn(CC2CC2)c2cnccc12 [Example 16, 1-(cycloproylmethyl)-N-(3-fluoropyridin-4-yl)-1H-pyrrolo[2,3-c]pyridine-3-carboxamide]",< 25
12,"O=C(Nc1ccncc1F)c1cn(CC2CC2)c2ccncc12 [Example 17, 1-(cyclopropylmethyl)-N-(3-fluoropyridin-4-yl)-1H-pyrrolo[3,2-c]pyridine-3-carboxamide]",< 25
13,"O=C(Nc1ccncc1F)c1cn(CC2CC2)c2cccnc12 [Example 18, 1-(cycloproylmethyl)-N-(3-fluoropyridin-4-yl)-1H-pyrrolo[3,2-b]pyridine-3-carboxamide]",26 to 50
14,"Cc1cnccc1NC(=O)c1ccn(CC2CC2)n1 [Example 19, 1-(cyclopropylmethyl)-N-(3-methylpyridin-4-yl)-1H-pyrazole-3-carboxamide]",51 to 75
15,"O=C(Nc1ccncc1F)c1ccn(CC2CC2)n1 [Example 20, 1-(cyclopropylmethyl)-N-(3-fluoropyridin-4-yl)-1H-pyrazole-3-carboxamide]",51 to 75
16,"O=C(Nc1c(F)cccc1F)c1ccn(CC2CC2)n1 [Example 21, 1-(cyclopropylmethyl)-N-(2,6-difluorophenyl)-1H-pyrazole-3-carboxamide]",< 25
17,"O=C(Nc1c(F)cncc1F)c1ccn(CC2CC2)n1 [Example 22, 1-(cyclopropylmethyl)-N-(3,5-difluoropyridin-4-yl)-1H-pyrazole-3-carboxamide]",< 25
18,"O=C(Nc1ccncc1F)c1nn(CC2CC2)c2ccccc12 [Example 23, 1-(cyclopropylmethyl)-N-(3-fluoropyridin-4-yl)-1H-indazole-3-carboxamide]",> 75

row,SMILES,inhibition at 10 µM [%]
1,"O=C(Nc1ccncc1F)c1nn(CC2CC2)c2c1CCCC2 [Example 25, 1-(cyclopropylmethyl)-N-(3-fluoropyridin-4-yl)-4,5,6,7-tetrahydro-1H-indazole-3-carboxamide]",> 75
2,"O=C(Nc1c(F)cccc1F)c1nn(CC2CC2)c2c1CCCC2 [Example 26, 1-(cyclopropylmethyl)-N-(2,6-difluorophenyl)-4,5,6,7-tetrahydro-1H-indazole-3-carboxamide]",51 to 75
3,"O=C(Nc1ccn(CC2CC2)n1)c1c(F)cncc1F [Example 27, N-(1-(cyclopropylmethyl)-1H-pyrazol-3-yl)-3,5-difluoroisonicotinamide]",26 to 50
4,"O=C(Nc1ccn(CC2CC2)n1)c1ccncc1F [Example 28, N-(1-(cyclopropylmethyl)-1H-pyrazol-3-yl)-3-fluoroisonicotinamide]",< 25
5,"Cc1cnccc1C(=O)Nc1ccn(CC2CC2)n1 [Example 30, N-[1-(cyclopropylmethyl)-1H-pyrazol-3-yl]-3-methylpyridine-4-carboxamide]",< 25
6,"O=C(Nc1ccncc1F)c1nn(CC2CC2)c2ncccc12 [Example 31, 1-(cyclopropylmethyl)-N-(3-fluoropyridin-4-yl)-1H-pyrazolo[3,4-b]pyridine-3-carboxamide]",51 to 75
7,"O=C(Nc1ccncc1F)c1nn(CC2CC2)c2c1CCC2 [Example 32, 1-(cycloproylmethyl)-N-(3-fluoropyridin-4-yl)-1,4,5,6-tetrahydrocyclopenta[c]pyrazole-3-carboxamide]",> 75
8,"O=C(Nc1ccncc1F)c1nn(CC2CCC2)c2c1CCCC2 [Example 33, 1-(cyclobutylmethyl)-N-(3-fluoropyridin-4-yl)-4,5,6,7-tetrahydro-1H-indazole-3-carboxamide]",> 75
9,"Cc1ccc2c(c1)c(C(=O)Nc1ccncc1F)nn2CC1CC1 [Example 34, 1-(cyclopropylmethyl)-N-(3-fluoropyridin-4-yl)-5-methyl-1H-indazole-3-carboxamide]",> 75
10,"O=C(Nc1ccncc1F)c1nn(CC2CC2)c2cc(Cl)ccc12 [Example 35, 6-chloro-1-(cyclopropylmethyl)-N-(3-fluoropyridin-4-yl)-1H-indazole-3-carboxamide]",51 to 75
11,"O=C(Nc1ccncc1F)c1nn(CC2CC2)c2ccc(Br)cc12 [Example 36, 1-(cyclopropylmethyl)-5-bromo-N-(3-fluoropyridin-4-yl)-1H-indazole-3-carboxamide]",51 to 75
12,"O=C(Nc1ccncc1F)c1nn(CC2CC2)c2ccc(F)cc12 [Example 37, 1-(cyclopropylmethyl)-5-fluoro-N-(3-fluoropyridin-4-yl)-1H-indazole-3-carboxamide]",> 75
13,"O=C(Nc1ccncc1F)c1nn(CC2CC2)c2cc(F)ccc12 [Example 38, 1-(cyclopropylmethyl)-6-fluoro-N-(3-fluoropyridin-4-yl)-1H-indazole-3-carboxamide]",> 75
14,"O=C(Nc1ccncc1F)c1nn(CC2CC2)c2c(F)cccc12 [Example 39, 1-(cyclopropylmethyl)-7-fluoro-N-(3-fluoropyridin-4-yl)-1H-indazole-3-carboxamide]",51 to 75
15,"Cc1cnccc1NC(=O)c1nn(CC2CCC2)c2c1CCCC2 [Example 40, 1-(cyclobutylmethyl)-N-(3-methylpyridin-4-yl)-4,5,6,7-tetrahydro-1H-indazole-3-carboxamide]",> 75
16,"Cc1cnccc1NC(=O)c1nn(CC2CC2)c2c1CCC2 [Example 41, 1-(cycloproylmethyl)-N-(3-methylpyridin-4-yl)-1,4,5,6-tetrahydrocyclopenta[c]pyrazole-3-carboxamide]",51 to 75
17,"Cc1cnccc1NC(=O)c1nn(CC2CC2)c2c1CCCC2 [Example 42, 1-(cyclopropylmethyl)-N-(3-methylpyridin-4-yl)-4,5,6,7-tetrahydro-1H-indazole-3-carboxamide]",> 75
18,"Cc1c(C(=O)Nc2ccncc2F)c2ccccc2n1CC1CC1 [Example 43, 1-(cyclopropylmethyl)-N-(3-fluoropyridin-4-yl)-2-methyl-1H-indole-3-carboxamide]",> 75

# System: Rat mast cells (RBL-2H3 cells)
# Assay: Calcium influx assay (Fluo-4NW, thapsigargin store depletion, Ca2+ re-addition)
# Format: cell-based
# Conditions: 1 μM compound, control = DMSO, read-out: Fluo-4NW fluorescence (Ca2+ influx), % of control
# Method: Rat mast cells (RBL-2H3 cells) (ATCC) were seeded in 96-well plate at 4×10^4 cells per well in DMEM-supplemented with 2% FBS and allowed to adhere overnight. Culture medium was then replaced with 50 μl of Ca^2+-free Tyrode buffer to load Ca^2+-probe Fluo-4NW (Molecular Probe, Thermo Fisher, MA, USA) per manufacturer instruction. A testing compound at indicated concentrations was supplied during the probe loading from the beginning. Cells were incubated in the presence or absence of a testing compound for 60 minutes in the Ca^2+-free medium at 37° C. During the last 5 minutes of incubation, cells were treated with 1 μM thapsigargin (Tg, Sigma Aldrich) to deplete [Ca^2+]ER, 20 mM CaCl2 in normal saline solution was supplemented back to the [Ca^2+]ER-depleted cells to have 2 mM as final concentration. Culture medium was removed 1 minute after Ca^2+ reloading, and changes in Fluo-4NW fluorescence (RFU) were recorded with the multi-mode plate reader (FilterMax F5, Molecular Devices/Thermo Fisher Scientific, MA, USA) at an excitation wavelength of 485 nm and an emission wavelength of 535 nm. The inhibitory activity of the tested compound was presented as % of control (DMSO).
row,SMILES,activity at 1 µM [%]
1,"O=C(Nc1c(F)cccc1F)c1cn(CC2CC2)c2ccccc12 [Example 1, 1-(cyclopropylmethyl)-N-(2,6-difluorophenyl)-1H-indole-3-carboxamide]",75
2,"O=C(Nc1c(F)cncc1F)c1cn(CC2CC2)c2ccccc12 [Example 3, 1-(cyclopropylmethyl)-N-(3,5-difluoropyridin-4-yl)-1H-indole-3-carboxamide]",66
3,"Cc1cnccc1NC(=O)c1cn(CC2CC2)c2ccccc12 [Example 4, 1-(cyclopropylmethyl)-N-(3-methylpyridin-4-yl)-1H-indole-3-carboxamide]",61

# Same assay, conditions: 10 μM compound, control = DMSO, read-out: Fluo-4NW fluorescence (Ca2+ influx), % of control
row,SMILES,activity at 10 µM [%]
1,"O=C(Nc1c(F)cccc1F)c1cn(CC2CC2)c2ccccc12 [Example 1, 1-(cyclopropylmethyl)-N-(2,6-difluorophenyl)-1H-indole-3-carboxamide]",42
2,"O=C(Nc1c(F)cncc1F)c1cn(CC2CC2)c2ccccc12 [Example 3, 1-(cyclopropylmethyl)-N-(3,5-difluoropyridin-4-yl)-1H-indole-3-carboxamide]",37
3,"Cc1cnccc1NC(=O)c1cn(CC2CC2)c2ccccc12 [Example 4, 1-(cyclopropylmethyl)-N-(3-methylpyridin-4-yl)-1H-indole-3-carboxamide]",44
